Type in all cases: biochemical
One assay has as its target T1, MMP-2 (Homo sapiens, UniProt P08253).
T1 sequence (P08253 110-660): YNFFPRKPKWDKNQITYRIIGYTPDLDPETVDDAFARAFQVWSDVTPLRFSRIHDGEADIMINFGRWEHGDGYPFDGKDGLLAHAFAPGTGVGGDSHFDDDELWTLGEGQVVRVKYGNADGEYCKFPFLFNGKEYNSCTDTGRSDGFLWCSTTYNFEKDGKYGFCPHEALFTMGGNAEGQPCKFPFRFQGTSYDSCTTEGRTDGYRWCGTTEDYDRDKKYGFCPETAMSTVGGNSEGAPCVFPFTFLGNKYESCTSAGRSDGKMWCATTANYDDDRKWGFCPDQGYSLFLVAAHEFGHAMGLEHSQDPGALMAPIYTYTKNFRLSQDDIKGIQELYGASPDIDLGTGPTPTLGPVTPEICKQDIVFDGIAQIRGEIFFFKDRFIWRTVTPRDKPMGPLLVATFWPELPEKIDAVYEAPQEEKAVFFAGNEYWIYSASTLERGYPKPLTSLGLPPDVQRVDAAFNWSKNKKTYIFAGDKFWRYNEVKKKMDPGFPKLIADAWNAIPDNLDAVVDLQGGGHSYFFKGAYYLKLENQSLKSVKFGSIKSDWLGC
Description: Automated MMP Profiling Assay, MMP-2 fluorogenic. The following applies: for IC50: 96-well automated, P218, read-out: MMP-2 Fluorogenic IC50 (profiling).

The target in the next assay is T2, MMP-3 (Homo sapiens, UniProt P08254).
T2 construct: Truncated Prostromelysin-257 was expressed in a soluble form in E.coli; made in house; host or cells: E. coli
T2 sequence (P08254 100-274 limits assumed): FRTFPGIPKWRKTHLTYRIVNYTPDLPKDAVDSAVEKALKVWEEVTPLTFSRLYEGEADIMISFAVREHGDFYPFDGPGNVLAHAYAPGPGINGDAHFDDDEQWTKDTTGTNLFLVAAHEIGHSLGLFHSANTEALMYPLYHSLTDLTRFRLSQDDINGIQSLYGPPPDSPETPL
Nature of the assay: Automated MMP Profiling Assay, MMP-3 fluorogenic. The following applies: for IC50: 96-well automated, P218. An excerpt: This assay with each invention compound was run with the three enzymes MMP-3, MMP-9 and MMP-2 in parallel as adapted for a 96-well microtitre plate using a Hamilton A® workstation.

A further assay concerns the target T3, MMP-9 (Homo sapiens, UniProt P14780).
T3 construct: from tissue; host or cells: human polymorphonuclear leukocytes (PMN) from whole blood (New York Blood Center), PMA-stimulated supernatant
Description: Automated MMP Profiling Assay, MMP-9 fluorogenic. The following applies: for IC50: 96-well automated, P218.

Some results are limits rather than exact numbers.

T3 sequence (P14780 107-707 limits assumed): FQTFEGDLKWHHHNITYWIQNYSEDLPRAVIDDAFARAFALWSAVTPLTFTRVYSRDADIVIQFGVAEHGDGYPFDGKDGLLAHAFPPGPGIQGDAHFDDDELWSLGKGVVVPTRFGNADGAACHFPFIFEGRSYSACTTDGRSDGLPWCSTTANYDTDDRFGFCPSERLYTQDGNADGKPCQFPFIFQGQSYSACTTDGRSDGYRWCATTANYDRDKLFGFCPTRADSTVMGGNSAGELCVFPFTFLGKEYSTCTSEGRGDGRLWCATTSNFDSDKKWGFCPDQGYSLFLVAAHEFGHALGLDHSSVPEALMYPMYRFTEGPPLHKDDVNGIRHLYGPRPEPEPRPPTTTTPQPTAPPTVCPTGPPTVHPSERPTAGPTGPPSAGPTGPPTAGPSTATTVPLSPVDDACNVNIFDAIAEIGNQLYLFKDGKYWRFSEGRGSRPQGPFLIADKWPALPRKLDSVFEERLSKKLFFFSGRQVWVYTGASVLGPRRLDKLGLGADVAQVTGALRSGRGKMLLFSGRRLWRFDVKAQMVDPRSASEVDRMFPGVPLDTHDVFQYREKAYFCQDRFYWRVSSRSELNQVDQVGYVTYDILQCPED

In the case of `Cc1cccc(C(=O)OC[C@@H]2CC[C@H](C(=O)c3ccc(-c4ccc(Cl)cc4)cc3)[C@H]2C(=O)O)c1` (relative stereo) [Example 379, Benzoic acid, 3-methyl-, [2-carboxy-3-[(4'-chloro[1,1'-biphenyl]-4-yl)carbonyl]cyclopentyl]methyl ester, (1α,2β,3α)-], the IC50 on MMP-2 turned out to be 92 nM; against MMP-3, 63 nM; on MMP-9, 48 nM.

On to `O=C(CC(CCCc1ccccc1)C(=O)O)c1ccc(-c2ccc(C(=O)O)o2)cc1` (stereo not drawn) [Example 69, 2-Furancarboxylic acid, 5-[4-(3-carboxy-1-oxo-6-phenylhexyl)phenyl]-], for which the inhibition at 5 µM on MMP-2 (at 5 μM), on MMP-3 (at 5 μM) and at MMP-9 (at 5 μM) was 0% in each case.

Regarding `O=C(CC(CCCc1ccccc1)C(=O)O)c1ccc(-c2ccc(OCc3cccnc3)cc2)cc1` (stereo not drawn) [Example 109, [1,1'-Biphenyl]-4-butanoic acid, γ-oxo-α-(3-phenylpropyl)-4'-(3-pyridinylmethoxy)-], the values for the IC50 on MMP-2, at MMP-3 and on MMP-9 were 6.6 nM, 28 nM and 1290 nM, respectively.

Consider `COC(=O)c1cccc(SCC(CC(=O)c2ccc(-c3ccc(Cl)cc3)cc2)C(=O)O)c1` (stereo not drawn) [Example 432, [1,1'-Biphenyl]-4-butanoic acid, 4'-chloro-α-[[[3-(methoxycarbonyl)phenyl]thio]methyl]-γ-oxo-], for which the IC50 was 236 nM at MMP-2, 1600 nM against MMP-3 and > 1250 nM on MMP-9.

Consider `O=C(O)c1ccccc1S[C@H]1CC[C@H](C(=O)c2ccc(-c3ccc(Cl)cc3)cc2)[C@H]1C(=O)O` (relative stereo) [Example 301, Benzoic acid, 2-[[2-carboxy-3-[(4'-chloro[1,1'-biphenyl]-4-yl)carbonyl]cyclopentyl]thio]-, [1S-(1α,2α,3β)]-], for which the IC50 on MMP-2 came to 18 nM; against MMP-3 it was 30 nM; against MMP-9, 290 nM.

Turning to `CCOc1ccc(-c2ccc(C(=O)CC(CCN3C(=O)c4cc5ccccc5cc4C3=O)C(=O)O)cc2)cc1` (stereo not drawn) [Example 429, 2H-Benz[.function.]isoindole-2-butanoic acid, α-[2-(4'-ethoxy[1,1'-biphenyl]-4-yl)-2-oxoethyl]-1,3-dihydro-1,3-dioxo-], the figures for the concentration for half-maximal inhibition (IC50) on MMP-2, against MMP-3 and against MMP-9 were 23 nM, 23 nM and 1.6 nM, respectively.

With `CCCCCOc1ccc(-c2ccc(C(=O)CC(CCc3ccccc3)C(=O)O)cc2)cc1` (stereo not drawn) [Example 158, [1,1'-Biphenyl]-4-butanoic acid, γ-oxo-4'-(pentyloxy)-α-(2-phenylethyl)-], the results for the IC50 at MMP-2, at MMP-3 and against MMP-9 were 32 nM, 37 nM and > 500 nM, respectively.

As to `O=C(O)[C@H]1[C@H](CSc2cccs2)CC[C@@H]1C(=O)c1ccc(-c2ccc(Cl)cc2)cc1` (relative stereo) [Example 369, Cyclopentanecarboxylic acid, 2-[(4'-chloro[1,1'-biphenyl]-4-yl)carbonyl]-5-[(2-thienylthio)methyl]-, (1α,2β,5β)-], the 50% inhibitory concentration (IC50) on MMP-2 was found to be 37 nM; against MMP-3 it was 54 nM; on MMP-9 it was 139 nM.

As to `O=C(CC(CCN1C(=O)c2cccc(O)c2C1=O)C(=O)O)c1ccc(-c2ccc(Cl)cc2)cc1` (stereo not drawn) [Example 421, 2H-Isoindole-2-butanoic acid, α-[2-(4'chloro[1,1'-biphenyl]-4-yl)-2-oxoethyl]-1,3-dihydro-4-hydroxy-1,3-dioxo-], the figures for the IC50 on MMP-2, against MMP-3 and against MMP-9 were 0.75 nM, 12 nM and 1.7 nM, respectively.

As for `COC(=O)c1cc(F)ccc1SCC(CC(=O)c1ccc(-c2ccc(Cl)cc2)cc1)C(=O)O` (stereo not drawn) [Example 434, [1,1'-Biphenyl]-4-butanoic acid, 4'-chloro-α-[[[4-fluoro-2-(methoxycarbonyl)phenyl]thio]methyl]-γ-oxo-], the figures for the concentration for half-maximal inhibition (IC50) at MMP-2, on MMP-3 and on MMP-9 were 61 nM, 254 nM and 1140 nM, respectively.

Regarding `CCN(CC)C(=O)c1cccc(CCC(CC(=O)c2ccc(-c3ccc(OCc4ccccc4)cc3)cc2)C(=O)O)c1` (stereo not drawn) [Example 165, [1,1'-Biphenyl]-4-butanoic acid, α-[2-[3-[(diethylamino)carbonyl]phenyl]ethyl]-γ-oxo-4'-(phenylmethoxy)-], the IC50 at MMP-2 amounted to 3 nM; against MMP-3 it was 13 nM; against MMP-9, 55 nM.

`O=C(O)[C@H]1[C@H](COCc2ccccc2)CC[C@@H]1C(=O)c1ccc(-c2ccc(Cl)cc2)cc1` (relative stereo) [Example 365, Cyclopentanecarboxylic acid, 2-[(4'-chloro[1,1'-biphenyl]-4-yl)carbonyl]-5-[(phenylmethoxy)methyl]-, (1α,2β,5β)-]: the results for the IC50 on MMP-2, at MMP-3 and against MMP-9 were 13 nM, 27 nM and 58 nM, respectively.

`CN(C)C(=O)c1cccc(SCC(CC(=O)c2ccc(-c3ccc(Cl)cc3)cc2)C(=O)O)c1` (stereo not drawn) [Example 437, [1,1'-Biphenyl]-4-butanoic acid, 4'-chloro-α-[[[3-[(dimethylamino)carbonyl]phenyl]thio]methyl]-γ-oxo-]: the IC50 worked out at 15 nM at MMP-2, 50 nM against MMP-3 and 366 nM at MMP-9.

For the compound `CCCCCOc1ccc(-c2ccc(C(=O)CC(CCc3cccc(C(=O)N(CC)CC)c3)C(=O)O)cc2)cc1` (stereo not drawn) [Example 164, [1,1'-Biphenyl]-4-butanoic acid, α-[2-[3-[(diethylamino)carbonyl]phenyl]ethyl]-γ-oxo-4'-(pentyloxy)-], the IC50 worked out at 3.9 nM at MMP-2, 30 nM against MMP-3 and 82 nM on MMP-9.

Take `COc1ccc(-c2ccc(C(=O)CC(CCc3ccccc3)C(=O)O)cc2)cc1` (stereo not drawn) [Example 154, [1,1'-Biphenyl]-4-butanoic acid, 4'-methoxy-γ-oxo-α-(2-phenylethyl)-]: the IC50 was determined as 37 nM on MMP-2, 470 nM on MMP-3 and 875 nM on MMP-9.

With `O=C(CC(CCN1C(=O)c2ccc(O)cc2C1=O)C(=O)O)c1ccc(-c2ccc(Cl)cc2)cc1` (stereo not drawn) [Example 420, 2H-Isoindole-2-butanoic acid, α-[2-(4'chloro[1,1'-biphenyl]-4-yl)-2-oxoethyl]-1,3-dihydro-5-hydroxy-1,3-dioxo-], the concentration for half-maximal inhibition (IC50) on MMP-2 stood at 5.1 nM; against MMP-3 it was 14 nM; at MMP-9, 1.7 nM.

As for `COC(=O)c1ccccc1SC[C@@H]1CC[C@H](C(=O)c2ccc(-c3ccc(Cl)cc3)cc2)[C@H]1C(=O)O` (relative stereo) [Example 376, Benzoic acid, 2-[[[2-carboxy-3-[(4'-chloro[1,1'-biphenyl]-4-yl)carbonyl]cyclopentyl]methyl]thio]-, 1-methyl ester, (1α,2β,3α)0], the IC50 on MMP-2 was found to be 34 nM; against MMP-3, 46 nM; against MMP-9 it was 95 nM.

In the case of `COc1ccc2c(c1)C(=O)N(CCC(CC(=O)c1ccc(-c3ccc(Cl)cc3)cc1)C(=O)O)C2=O` (stereo not drawn) [Example 422, 2H-Isoindole-2-butanoic acid, α-[2-(4'chloro[1,1'-biphenyl]-4-yl)-2-oxoethyl]-1,3-dihydro-5-methoxy-1,3-dioxo-], the half-maximal inhibitory concentration (IC50) on MMP-2 stood at 14 nM; on MMP-3, 8.4 nM; on MMP-9, 1.6 nM.

Regarding `O=C(O)[C@H]1[C@H](COc2ccccc2)CC[C@@H]1C(=O)c1ccc(-c2ccc(Cl)cc2)cc1` (relative stereo) [Example 366, Cyclopentanecarboxylic acid, 2-[(4'-chloro[1,1'-biphenyl]-4-yl)carbonyl]-5-(phenoxymethyl)-, (1α,2β,5β)-], the IC50 came to 6.7 nM at MMP-2, 22 nM at MMP-3 and 56 nM against MMP-9.

For the compound `CC(=O)Nc1ccc(-c2ccc(C(=O)CC(CCc3ccccc3)C(=O)O)cc2)cc1` (stereo not drawn) [Example 139, [1,1'-Biphenyl]-4-butanoic acid, 4'-(acetylamino)-γ-oxo-α-(2-phenylethyl)-], the IC50 came out at 323 nM at MMP-2, 5000 nM at MMP-3 and 5000 nM against MMP-9.

On to `CC(=O)O[C@@H]1C[C@H](C(=O)c2ccc(-c3ccc(Cl)cc3)cc2)[C@H]1C(=O)O` (relative stereo) [Example 396, Cyclobutanecarboxylic acid, 2-(acetyloxy)-4-[(4'-chloro[1,1'-biphenyl]-4-yl)carbonyl]-, (1α,2β,4β)-], for which the figures for the IC50 on MMP-2, against MMP-3 and against MMP-9 were 362 nM, 779 nM and 2290 nM, respectively.

Regarding `O=C(CC(CCc1ccccc1C(=O)O)C(=O)O)c1ccc(-c2ccc(Cl)cc2)cc1` (stereo not drawn) [Example 143, [1,1'-Biphenyl]-4-butanoic acid, α-[2-(2-carboxyphenyl)ethyl]-4'-chloro-γ-oxo-], the IC50 on MMP-2 was found to be 111 nM; against MMP-3 it was 309 nM; on MMP-9, 1400 nM.

As to `CCCCOc1ccc(-c2ccc(C(=O)CC(CCc3ccccc3)C(=O)O)cc2)cc1` (stereo not drawn) [Example 160, [1,1'-Biphenyl]-4-butanoic acid, 4'-butoxy-γ-oxo-α-(2-phenylethyl)-], the IC50 on MMP-2 is 42 nM; on MMP-3 it was 147 nM; against MMP-9 it was 1060 nM.

Values taken from patent publication US5789434A, “Derivatives of substituted 4-biarylbutyric acid as matrix metalloprotease inhibitors” (priority 1995, dated 1998).
